From US20230265116A1, “DEGRADATION OF (EGFR) BY CONJUGATION OF EGFR INHIBITORS WITH E3 LIGASE LIGAND AND METHODS OF USE” (BEIGENE, LTD., priority 2020, published 2023)

Tests used:
EGFR (HCC827 cells) = target: T1, EGFR (HCC827 cells) (Homo sapiens, UniProt P00533, DEL746-750); experiment: EGFR degradation HTRF assay, HCC827 cells; assay type: cell-based; settings: HCC827, 16h treatment; for Dmax: maximum percentage of degradation
T1 construct: endogenous in cells; host or cells: HCC827
Outline: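 BaF3 (WT, Del19/T790M/C797S) and HCC827 cells exposed 16 h at 37 °C, 5% CO2 to compounds in 0.2% DMSO medium, 8 doses from 10 uM top, 5-fold steps. Lysates read by HTRF (665/620 nm); degradation % vs DMSO control, DC50 from four-parameter fit, Dmax as maximal degradation.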

[1] = target: T2, EGFR L858R/T790M (H1975-clone #36, homozygous) (Homo sapiens, UniProt P00533, L858R/T790M); experiment: EGFR degradation HTRF assay, H1975-clone #36 cells; assay type: cell-based; settings: H1975 #36, 16h treatment; for Dmax: NCI-H1975, maximum percentage of degradation
T2 construct: designed to specifically target WT EGFR but preserve the L858R/T790M copy; host or cells: H1975-clone #36
Protocol: H1975-clone #36(L858R/T790M). H1975 cell heterozygously (from ATCC) contains alleles of WT and L858R/T790M EGFR. H1975-clone #36(L858R/T790M) was generated by gene knockout, in which the EGFR targeting sgRNA was designed to specifically target WT EGFR but preserve the L858R/T790M copy. Followed by the gene knockout, the edited H1975 cells were seeded in 96 well plates at the concentration of 1 cell/well, cultured for about 2 weeks to allow single clones formation. The formed clones were screened by DNA sequencing for the desired edition. H1975-clone #36 was confirmed as a homozygous L858R/T790M EGFR clone.
BaF3 WT(wild type), BaF3-LTC(L858R/T790M/C797S) and BaF3-DTC(Del19/T790M/C797S) cells are treated with compounds diluted in 0.2% DMSO cell culture medium and incubate for 16h, 37° C., 5% CO2, H1975-#36, H1975-#28, H1975-#23 and HCC827 cells are treated with compounds diluted in 0.2% DMSO cell culture medium on day 2, incubate for 16h, 37° C., 5% CO2.the final concentriation of compounds in all assay is start with 10 uM, 5-fold dilution, total 8 doses were included.
After 16h treatment, add HTRF lysis buffer to each well; seal the plate and incubate 1 hour at room temperature on a plate shaker; Once the cells are lysed, 16 μL of cell lysate are transferred to a PE 384-well HTRF detection plate; 4 μL of pre-mixed HTRF antibodies are added to each well; Cover the plate with a plate sealer, spin 1000 rpm for 1 min, Incubate overnight at room temperature; Read on BMG PheraStar with HTRF protocol (337 nm-665 nm-620 nm).
The inhibition (degradation) percentage of the compound was calculated by the following equation: Inhibition percentage of Compound=100-100×(Signal-low control)/(High control-low control), wherein signal=each test compound group
High control=Cell group with added DMSO and without compound, indicating microplate readings without EGFR degradation;
Dmax is the maximum percentage of inhibition (degradation).
The IC50 (DC50) value of a compound can be obtained by fitting the following equation
Y=Bottom+(TOP−Bottom)/(1+((IC50/X)^hillslope))
Wherein, X and Y are known values, and IC50, Hillslope, Top and Bottom are the parameters obtained by fitting with software. Y is the inhibition percentage (calculated from the equation), X is the concentration of the compound; IC50 is the concentration of the compound when the 50% inhibition is reached. The smaller the IC50 value is, the stronger the inhibitory ability of the compound is. Vice versa, the higher the IC50 value is, the weaker the inhibitory ability of the compound is; Hillslope represents the slope of the fitted curve, generally around 1*; Bottom represents the minimum value of the curve obtained by data fitting, which is generally 0%±20%; Top represents the maximum value of the curve obtained by data fitting, which is generally 100%±20%. The experimental data were fitted by calculating and analyzing with Dotmatics data analysis software.

T1 sequence (P00533 with tags, fused parts or gaps DEL746-750): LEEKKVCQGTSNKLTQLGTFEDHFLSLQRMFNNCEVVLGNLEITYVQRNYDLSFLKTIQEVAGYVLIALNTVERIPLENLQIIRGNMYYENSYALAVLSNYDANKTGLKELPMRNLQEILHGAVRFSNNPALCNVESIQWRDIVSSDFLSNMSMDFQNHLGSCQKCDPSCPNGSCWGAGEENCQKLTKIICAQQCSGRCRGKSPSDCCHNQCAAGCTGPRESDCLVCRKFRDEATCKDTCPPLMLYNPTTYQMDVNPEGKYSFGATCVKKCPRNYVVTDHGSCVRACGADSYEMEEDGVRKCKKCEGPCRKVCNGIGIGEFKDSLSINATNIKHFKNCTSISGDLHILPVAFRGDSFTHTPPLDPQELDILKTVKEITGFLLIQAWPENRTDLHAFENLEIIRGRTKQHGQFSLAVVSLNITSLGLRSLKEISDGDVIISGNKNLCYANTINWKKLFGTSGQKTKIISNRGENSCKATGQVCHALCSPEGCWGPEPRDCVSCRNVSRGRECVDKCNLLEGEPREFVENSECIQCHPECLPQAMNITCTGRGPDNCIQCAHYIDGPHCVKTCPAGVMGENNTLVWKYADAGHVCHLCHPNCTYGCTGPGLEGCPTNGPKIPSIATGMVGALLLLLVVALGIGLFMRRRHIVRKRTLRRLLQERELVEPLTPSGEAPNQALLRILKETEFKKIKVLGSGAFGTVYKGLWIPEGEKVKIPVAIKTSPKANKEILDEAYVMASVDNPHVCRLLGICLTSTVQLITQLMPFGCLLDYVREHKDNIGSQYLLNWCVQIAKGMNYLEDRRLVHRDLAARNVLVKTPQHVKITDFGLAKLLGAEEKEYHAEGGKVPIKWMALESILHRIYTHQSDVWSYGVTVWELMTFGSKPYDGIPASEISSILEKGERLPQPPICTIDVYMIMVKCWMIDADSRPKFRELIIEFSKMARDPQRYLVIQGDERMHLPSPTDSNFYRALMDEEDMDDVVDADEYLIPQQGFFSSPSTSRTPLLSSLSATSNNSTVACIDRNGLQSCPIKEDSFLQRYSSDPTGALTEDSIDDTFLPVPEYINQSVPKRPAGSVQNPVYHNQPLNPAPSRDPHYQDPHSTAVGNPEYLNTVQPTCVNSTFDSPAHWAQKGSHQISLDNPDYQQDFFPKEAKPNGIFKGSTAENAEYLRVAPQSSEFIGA
T2 sequence (P00533 25-1210 T790M/L858R): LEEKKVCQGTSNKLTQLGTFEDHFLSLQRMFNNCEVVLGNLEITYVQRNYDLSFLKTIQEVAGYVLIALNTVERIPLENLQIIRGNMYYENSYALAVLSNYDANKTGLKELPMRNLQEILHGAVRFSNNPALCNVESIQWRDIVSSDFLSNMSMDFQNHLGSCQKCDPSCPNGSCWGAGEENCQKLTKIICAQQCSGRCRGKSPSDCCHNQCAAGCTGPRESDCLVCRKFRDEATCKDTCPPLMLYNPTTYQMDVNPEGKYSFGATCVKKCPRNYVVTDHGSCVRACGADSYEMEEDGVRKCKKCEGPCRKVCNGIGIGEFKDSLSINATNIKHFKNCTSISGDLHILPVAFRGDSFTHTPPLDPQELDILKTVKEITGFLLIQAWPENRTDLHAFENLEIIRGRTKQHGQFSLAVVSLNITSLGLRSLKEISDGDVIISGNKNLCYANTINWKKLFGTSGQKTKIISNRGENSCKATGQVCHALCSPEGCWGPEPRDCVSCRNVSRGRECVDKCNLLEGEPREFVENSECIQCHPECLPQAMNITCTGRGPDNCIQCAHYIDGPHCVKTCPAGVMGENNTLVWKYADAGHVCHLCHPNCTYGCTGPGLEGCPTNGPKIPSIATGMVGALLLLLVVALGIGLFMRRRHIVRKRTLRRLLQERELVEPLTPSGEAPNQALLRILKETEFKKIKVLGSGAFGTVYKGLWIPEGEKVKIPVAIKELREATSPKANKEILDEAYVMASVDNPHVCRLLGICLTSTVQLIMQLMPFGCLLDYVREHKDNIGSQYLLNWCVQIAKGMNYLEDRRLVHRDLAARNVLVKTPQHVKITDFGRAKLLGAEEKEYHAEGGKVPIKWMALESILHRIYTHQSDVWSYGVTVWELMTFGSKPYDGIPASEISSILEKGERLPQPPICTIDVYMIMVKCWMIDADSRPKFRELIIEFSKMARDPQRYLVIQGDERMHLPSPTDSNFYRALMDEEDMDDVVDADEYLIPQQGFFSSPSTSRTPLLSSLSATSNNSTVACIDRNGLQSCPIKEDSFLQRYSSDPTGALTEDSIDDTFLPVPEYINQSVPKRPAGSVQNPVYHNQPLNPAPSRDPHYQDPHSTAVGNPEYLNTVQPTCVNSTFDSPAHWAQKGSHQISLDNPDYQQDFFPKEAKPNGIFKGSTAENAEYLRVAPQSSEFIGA

DC50 (EGFR (HCC827 cells)) | Dmax (EGFR (HCC827 cells)) | DC50 [1] | Dmax [1] | Structure (SMILES)
25.8 nM | 68.8% | > 10000 nM | 5.13% | COc1cc(N2CCC(N(C)CC3CCN(c4ccc(N5CCC(=O)NC5=O)c(F)c4)CC3)CC2)c(C)cc1Nc1ncc(Br)c(Nc2ccc3nccnc3c2P(C)(C)=O)n1 [Example 81, 1-(4-(4-(((1-(4-((5-bromo-4-((5-(dimethylphosphoryl)quinoxalin-6-yl)amino)pyrimidin-2-yl)amino)-5-methoxy-2-methylphenyl)piperidin-4-yl)(methyl)amino)methyl)piperidin-1-yl)-2-fluorophenyl)dihydropyrimidine-2,4(1H,3H)-dione]
14.7 nM | 74% | > 10000 nM | 12.2% | COc1cc(N2CCC(N(C)CC3CCN(c4ccc(N5CCC(=O)NC5=O)cc4F)CC3)CC2)c(C)cc1Nc1ncc(Br)c(Nc2ccc3nccnc3c2P(C)(C)=O)n1 [Example 82, 1-(4-(4-(((1-(4-((5-bromo-4-((5-(dimethylphosphoryl)quinoxalin-6-yl)amino)pyrimidin-2-yl)amino)-5-methoxy-2-methylphenyl)piperidin-4-yl)(methyl)amino)methyl)piperidin-1-yl)-3-fluorophenyl)dihydropyrimidine-2,4(1H,3H)-dione]
20.3 nM | 74.2% | > 10000 nM | 14.7% | COc1cc(N2CCC(N(C)CC3CCN(c4ccc(N5CCC(=O)NC5=O)c(C)c4)CC3)CC2)c(C)cc1Nc1ncc(Br)c(Nc2ccc3nccnc3c2P(C)(C)=O)n1 [Example 83, 1-(4-(4-(((1-(4-((5-bromo-4-((5-(dimethylphosphoryl)quinoxalin-6-yl)amino)pyrimidin-2-yl)amino)-5-methoxy-2-methylphenyl)piperidin-4-yl)(methyl)amino)methyl)piperidin-1-yl)-2-methylphenyl)dihydropyrimidine-2,4(1H,3H)-dione]
73.3 nM | 75% | > 10000 nM | 20.9% | COc1cc(N2CCC(N(C)CCCOc3ccc(N4CCC(=O)NC4=O)cc3)CC2)c(C)cc1Nc1ncc(Br)c(Nc2ccc3nccnc3c2P(C)(C)=O)n1 [Example 85, 1-(4-(3-((1-(4-((5-bromo-4-((5-(dimethylphosphoryl)quinoxalin-6-yl)amino)pyrimidin-2-yl)amino)-5-methoxy-2-methylphenyl)piperidin-4-yl)(methyl)amino)propoxy)phenyl)dihydropyrimidine-2,4(1H,3H)-dione]
21.9 nM | 68.7% | 3.54 nM | 54.5% | COc1cc(N2CCN(CC3CCN(c4ccc(C5CCC(=O)NC5=O)cc4)CC3)CC2)c(C)cc1Nc1ncc(Br)c(Nc2ccc3nccnc3c2P(C)(C)=O)n1 (stereo not drawn) [Example 88, 3-(4-(4-((4-(4-((5-bromo-4-((5-(dimethylphosphoryl)quinoxalin-6-yl)amino)pyrimidin-2-yl)amino)-5-methoxy-2-methylphenyl)piperazin-1-yl)methyl)piperidin-1-yl)phenyl)piperidine-2,6-dione]
59.6 nM | 91.8% | 6.23 nM | 84.7% | COc1cc(N2CCN(CC3CCN(c4ccc(C5CCC(=O)NC5=O)cc4)CC3)CC2)ccc1Nc1ncc(Br)c(Nc2ccc3nccnc3c2P(C)(C)=O)n1 (stereo not drawn) [Example 89, 3-(4-(4-((4-(4-((5-bromo-4-((5-(dimethylphosphoryl)quinoxalin-6-yl)amino)pyrimidin-2-yl)amino)-3-methoxyphenyl)piperazin-1-yl)methyl)piperidin-1-yl)phenyl)piperidine-2,6-dione]

More lines, now with the values behind:

Structure (SMILES) | DC50 (EGFR (HCC827 cells)) | Dmax (EGFR (HCC827 cells)) | DC50 [1] | Dmax [1]
CCc1cc(Nc2ncc(Br)c(Nc3ccc4nccnc4c3P(C)(C)=O)n2)c(OC)cc1N1CCC(N2CCN(CCC3CCN(c4ccc(N5CCC(=O)NC5=O)cc4)CC3)CC2)CC1 [Example 55, 1-(4-(4-(2-(4-(1-(4-((5-bromo-4-((5-(dimethylphosphoryl)quinoxalin-6-yl)amino)pyrimidin-2-yl)amino)-2-ethyl-5-methoxyphenyl)piperidin-4-yl)piperazin-1-yl)ethyl)piperidin-1-yl)phenyl)dihydropyrimidine-2,4(1H,3H)-dione] | 313 nM | 56.2% | > 10000 nM | 18.7%
CCc1cc(Nc2ncc(Br)c(Nc3ccc4nccnc4c3P(C)(C)=O)n2)c(OC)cc1N1CCC(N2CCN(C(=O)CCC3CN(c4ccc5c(c4)C(=O)N(C4CCC(=O)NC4=O)C5=O)C3)CC2)CC1 (stereo not drawn) [Example 57, 5-(3-(3-(4-(1-(4-((5-bromo-4-((5-(dimethylphosphoryl)quinoxalin-6-yl)amino)pyrimidin-2-yl)amino)-2-ethyl-5-methoxyphenyl)piperidin-4-yl)piperazin-1-yl)-3-oxopropyl)azetidin-1-yl)-2-(2,6-dioxopiperidin-3-yl)isoindoline-1,3-dione] | 4.8 nM | 76.1% | 5.31 nM | 77.4%
CCc1cc(Nc2ncc(Br)c(Nc3ccc4nccnc4c3P(C)(C)=O)n2)c(OC)cc1N1CCC(N2CCN(CCC3CN(c4ccc5c(c4)C(=O)N(C4CCC(=O)NC4=O)C5=O)C3)CC2)CC1 (stereo not drawn) [Example 58, 5-(3-(2-(4-(1-(4-((5-bromo-4-((5-(dimethylphosphoryl)quinoxalin-6-yl)amino)pyrimidin-2-yl)amino)-2-ethyl-5-methoxyphenyl)piperidin-4-yl)piperazin-1-yl)ethyl)azetidin-1-yl)-2-(2,6-dioxopiperidin-3-yl)isoindoline-1,3-dione] | 5.45 nM | 78.5% | 3.9 nM | 88.5%
CCc1cc(Nc2ncc(Br)c(Nc3ccc4nccnc4c3P(C)(C)=O)n2)c(OC)cc1N1CCC(N2CCN(CC3CN(c4ccc5c(c4)C(=O)N(C4CCC(=O)NC4=O)C5=O)C3)CC2)CC1 (stereo not drawn) [Example 59, 5-(3-((4-(1-(4-((5-bromo-4-((5-(dimethylphosphoryl)quinoxalin-6-yl)amino)pyrimidin-2-yl)amino)-2-ethyl-5-methoxyphenyl)piperidin-4-yl)piperazin-1-yl)methyl)azetidin-1-yl)-2-(2,6-dioxopiperidin-3-yl)isoindoline-1,3-dione] | 4.68 nM | 85.2% | 1.62 nM | 82.5%
COc1cc(N2CCC(N(C)CC3CCN(c4ccc(C5CCC(=O)NC5=O)cc4)CC3)CC2)c(C)cc1Nc1ncc(Br)c(Nc2ccc3nccnc3c2P(C)(C)=O)n1 (stereo not drawn) [Example 77, 3-(4-(4-(((1-(4-((5-bromo-4-((5-(dimethylphosphoryl)quinoxalin-6-yl)amino)pyrimidin-2-yl)amino)-5-methoxy-2-methylphenyl)piperidin-4-yl)(methyl)amino)methyl)piperidin-1-yl)phenyl)piperidine-2,6-dione] | 9.18 nM | 70.9% | 2.77 nM | 63%
COc1cc(N2CCC(N(C)CC3CCN(c4ccc(N5CCC(=O)NC5=O)cc4)CC3)CC2)c(C)cc1Nc1ncc(Br)c(Nc2ccc3nccnc3c2P(C)(C)=O)n1 [Example 79, 1-(4-(4-(((1-(4-((5-bromo-4-((5-(dimethylphosphoryl)quinoxalin-6-yl)amino)pyrimidin-2-yl)amino)-5-methoxy-2-methylphenyl)piperidin-4-yl)(methyl)amino)methyl)piperidin-1-yl)phenyl)dihydropyrimidine-2,4(1H,3H)-dione] | 17.5 nM | 72.1% | > 10000 nM | 18.6%
